We go through 15 molecules from US20040116420A1 (priority 2001, published 2004).

One data set addresses T1, HSV-1 protease (Human herpesvirus 1, UniProt P10210).
T1 construct: 6xHis (N); made in house; host or cells: baculovirus expression system
Nature of the data set: Enzymatic assay for HSV-1 protease (assembly) inhibitor, fluorescence polarization. The class given is biochemical. The settings on record: read-out: HSV-1 Enzyme inhibition IC50. In a few lines:
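Fluorescence polarization read-out: after avidin stop, cleavage of a biotinylated DTAF-labelled release-site peptide by recombinant N-His6 HSV-1 protease was compared with no-inhibitor wells. Enzyme and compound were preincubated 30 min, then substrate reacted 60 min, all at room temperature, pH 7.4 citrate buffer with TCEP.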
On the technique in general: Polarisation of emitted light reports the rotation of a fluorescent probe.

A further data set deals with HSV-1. Nature of the data set: Antiviral activity, HSV-1 in Vero cells, plaque method. Conditions: 90% inhibition of plaque formation. The class given is cell-based. In a few lines:
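This is a virus-yield read-out. The culture medium was frozen at −80° C and thawed, and the plaques it formed were counted. It came from Vero monolayers infected with 50,000 pfu HSV-1 and then exposed to the compound for 20 h at 37° C. EC90 is the concentration inhibiting 90% of plaque formation relative to the untreated infected control.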

The subject of another data set is Vero cells. Nature of the data set: Cytotoxicity, Vero cells, Alamar Blue. Conditions: 25 μM, 20 hours. The data set is classed as cell-based. In outline: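 Living-cell ratio versus untreated control was read by Alamar Blue absorbance after about 6 h of dye incubation. Before that, Vero cells had received 25 μM test compound in 2% FBS-DMEM for 20 hours at 37 °C under 5% CO2.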

Where [1] appears, read: Human alphaherpesvirus 1, 20 hours.

SMILES strings stand for the structures.

T1 sequence (P10210 1-247): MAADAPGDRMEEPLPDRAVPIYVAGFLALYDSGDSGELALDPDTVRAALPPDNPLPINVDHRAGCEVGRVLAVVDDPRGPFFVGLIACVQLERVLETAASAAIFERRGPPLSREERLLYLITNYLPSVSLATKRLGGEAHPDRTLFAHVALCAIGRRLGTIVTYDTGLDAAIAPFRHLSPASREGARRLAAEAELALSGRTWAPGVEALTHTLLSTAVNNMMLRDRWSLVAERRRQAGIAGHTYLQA

For orientation: IC50 means the concentration needed to halve the response being measured. One may read the EC90 as the concentration at which the effect reaches the 90% level. A low value points to greater potency. With `Cc1c(NC(=O)OC(C)(C)C)ccc2nc(N3CCC[C@H]3C(=O)N(C)CCc3ccncc3)oc(=O)c12` [Compound No.93, (5-Methyl-2-{2S-[methyl-(2-pyridin-4-yl-ethyl)-carbamoyl]-pyrrolidin-1-yl}-4-oxo-4H-benzo[d][1,3]oxazin-6-yl)-carbamic acid tert-butyl ester], the IC50 at HSV-1 protease is > 20 µM. In addition, in the data set on HSV-1 (setting [1]), the EC90 is > 12.5 µM. In the data set on Vero cells, the “Cell viability (% of control)” value is on record as 82.4%.

For `Cc1c(NC(=O)OC(C)(C)C)ccc2nc(N3CCC[C@H]3C(=O)NCc3ccncc3)oc(=O)c12` [Compound No.88, (5-Methyl-4-oxo-2-{2S-[(pyridin-4-ylmethyl)-carbamoyl]-pyrrolidin-1-yl}-4H-benzo[d][1,3]oxazin-6-yl)-carbamic acid tert-butyl ester], the half-maximal inhibitory concentration (IC50) on HSV-1 protease worked out at 2.7 µM. For the same molecule, the concentration for an effect of 90% (EC90) in the data set with HSV-1 (20 hours) is > 12.5 µM. Also, the “Cell viability (% of control)” value in the data set with Vero cells was found to be 74.1%.

Take `Cc1c(NC(=O)OC(C)(C)C)ccc2nc(N3CCC[C@H]3C(=O)NCc3ccccn3)oc(=O)c12` [Compound No.86, (5-Methyl-4-oxo-2-{2S-[(pyridin-2-ylmethyl)-carbamoyl]-pyrrolidin-1-yl}-4H-benzo[d][1,3]oxazin-6-yl)-carbamic acid tert-butyl ester]: the IC50 on HSV-1 protease turned out to be 1.1 µM. Moreover, the 90% effect concentration (EC90) with HSV-1 (setting [1]) is > 12.5 µM. Moreover, the “Cell viability (% of control)” value in the data set on Vero cells was 94.6%.

With `Cc1c(NC(=O)OC(C)(C)C)ccc2nc(N(C)[C@@H](Cc3ccccc3)C(=O)N(C)CCc3ccccn3)oc(=O)c12` [Compound No.83, [5-Methyl-2-(methyl-{1S-[methyl-(2-pyridin-2-yl-ethyl)carbamoyl]-2-phenyl-ethyl}-amino)-4-oxo-4H-benzo[d][1,3]oxazin-6-yl]-carbamic acid tert-butyl ester], on HSV-1 protease, the IC50 turned out to be 2.6 µM. The molecule further registered an EC90 in the data set with HSV-1 (setting [1]) of 11.5 µM. Also, in the data set with Vero cells, the “Cell viability (% of control)” value is on record as 66.6%.

Take `Cc1c(NC(=O)OC(C)(C)C)ccc2nc(N3Cc4ccccc4C[C@H]3C(=O)N(C)Cc3ccccn3)oc(=O)c12` [Compound No.98, {5-Methyl-2-[3S-(methyl-pyridin-2-yl-methylcarbamoyl)-3,4-dihydro-1H-isoquinolin-2-yl]-4-oxo-4H-benzo[d][1,3]oxazin-6-yl}-carbamic acid tert-butyl ester]: the IC50 on HSV-1 protease was 6.1 µM. In addition, the concentration for an effect of 90% (EC90) in the data set with HSV-1 (setting [1]) is 5.8 µM. Moreover, in the data set with Vero cells, the “Cell viability (% of control)” value was 46.2%.

For `Cc1c(NC(=O)OC(C)(C)C)ccc2nc(N[C@@H](Cc3ccccc3)C(=O)NCc3ccncc3)oc(=O)c12` [Compound No.31, (5-Methyl-4-oxo-2-{2-phenyl-1S-[(pyridin-4-ylmethyl)-carbamoyl]-ethylamino}-4H-benzo[d][1,3]oxazin-6-yl)-carbamic acid tert-butyl ester], the IC50 on HSV-1 protease was > 20 µM. Moreover, the EC90 in the data set with HSV-1 (setting [1]) is > 25 µM. For the same molecule, in the data set on Vero cells, the “Cell viability (% of control)” value stood at 108.0%.

Regarding `Cc1c(NC(=O)c2cccc3ccccc23)ccc2nc(NC(C)(C)C(=O)N(C)CCc3ccccn3)oc(=O)c12` [Compound No.190, Naphthalene-1-carboxylic acid (5-methyl-2-{1-methyl-1-[methyl-(2-pyridin-2-yl-ethyl)-carbamoyl]-ethylamino}-4-oxo-4H-benzo[d][1,3]oxazin-6-yl)-amide], on HSV-1 protease, the IC50 came out at 1.3 µM. This molecule showed a 90% effect concentration (EC90) in the data set on HSV-1 (setting [1]) of 12.4 µM. The “Cell viability (% of control)” value in the data set with Vero cells is given as 74.5%.

On to `Cc1c(NC(=O)OC(C)(C)C)ccc2nc(N3CCCC[C@H]3C(=O)N(C)CCc3cccnc3)oc(=O)c12` [Compound No.107, (5-Methyl-2-{2S-[methyl-(2-pyridin-3-yl-ethyl)-carbamoyl]-piperidin-1-yl}-4-oxo-4H-benzo[d][1,3]oxazin-6-yl)-carbamic acid tert-butyl ester], for which the IC50 on HSV-1 protease came to 7.4 µM. Moreover, the EC90 in the data set on HSV-1 (setting [1]) was > 12.5 µM. Besides, the “Cell viability (% of control)” value in the data set with Vero cells was 45.4%.

For `Cc1c(NC(=O)OC(C)(C)C)ccc2nc(N[C@H](C(=O)N(C)CCc3cccnc3)C(C)C)oc(=O)c12` [Compound No.67, (5-Methyl-2-{2-methyl-1S-[methyl-(2-pyridin-3-yl-ethyl)-carbamoyl]-propylamino}-4-oxo-4H-benzo[d][1,3]oxazin-6-yl)-carbamic acid tert-butyl ester], on HSV-1 protease, the concentration for half-maximal inhibition (IC50) turned out to be 1.5 µM. The same molecule came in with a concentration for an effect of 90% (EC90) with HSV-1 (setting [1]) of 5.3 µM. Moreover, the “Cell viability (% of control)” value with Vero cells amounted to 96.5%.

As for `Cc1c(NC(=O)C(C)C)ccc2nc(NC(C)(C)C(=O)N(C)CCc3ccccn3)oc(=O)c12` [Compound No.195, 2-(6-Isobutyrylamino-5-methyl-4-oxo-4H-benzo[d][1,3]oxazin-2-ylamino)-2,N-dimethyl-N-(2-pyridin-2-yl-ethyl)-propionamide], the 50% inhibitory concentration (IC50) at HSV-1 protease is 2.1 µM. In the data set with HSV-1 (setting [1]), the EC90 was ≥ 12.5 µM. In addition, in the data set on Vero cells, the “Cell viability (% of control)” value is 99.7%.

As for `Cc1c(NC(=O)OC(C)(C)C)ccc2nc(N3Cc4ccccc4C[C@H]3C(=O)NCCc3ccccn3)oc(=O)c12` [Compound No.97, {5-Methyl-4-oxo-2-[3S-(2-pyridin-2-yl-ethylcarbamoyl)-3,4-dihydro-1H-isoquinolin-2-yl]-4H-benzo[d][1,3]oxazin-6-yl}-carbamic acid tert-butyl ester], the concentration for half-maximal inhibition (IC50) at HSV-1 protease was 3.3 µM. In the data set on HSV-1 (setting [1]), this molecule came in with a concentration for an effect of 90% (EC90) of 11 µM. Besides, the “Cell viability (% of control)” value with Vero cells was 51.3%.

With `Cc1c(NC(=O)c2ccc(-c3ccccc3)cc2)ccc2nc(NC(C)(C)C(=O)N(C)CCc3ccccn3)oc(=O)c12` [Compound No.169, Biphenylyl-4-carboxylic acid (5-methyl-2-{1-methyl-1-[methyl-(2-pyridin-2-yl-ethyl)-carbamoyl]-ethylamino}-4-oxo-4H-benzo[d][1,3]oxazin-6-yl)-amide], the concentration for half-maximal inhibition (IC50) on HSV-1 protease came to 1 µM. This molecule returned an EC90 in the data set on HSV-1 (setting [1]) of 5.7 µM. Also, the “Cell viability (% of control)” value in the data set with Vero cells is recorded as 7.0%.

With `Cc1c(NC(=O)OC(C)(C)C)ccc2nc(N[C@H](C(=O)NCc3cccnc3)C(C)(C)C)oc(=O)c12` [Compound No.33, (2-{2,2-dimethyl-1S-[(pyridin-3-ylmethyl)-carbamoyl]-propylamino}-5-methyl-4-oxo-4H-benzo[d][1,3]oxazin-6-yl)-carbamic acid tert-butyl ester], at HSV-1 protease, the IC50 was determined as 10.1 µM. This molecule also came in with an EC90 with HSV-1 (setting [1]) of 13 µM. Further, the “Cell viability (% of control)” value in the data set with Vero cells is on record as 105.0%.

For `Cc1c(NC(=O)c2ccc(CCl)cc2)ccc2nc(NC(C)(C)C(=O)N(C)CCc3ccccn3)oc(=O)c12` [Compound No.171, 4-Chloromethyl-N-(5-methyl-2-{1-methyl-1-[methyl-(2-pyridin-2-yl-ethyl)-carbamoyl]-ethylamino}-4-oxo-4H-benzo[d][1,3]oxazin-6-yl)-benzamide], at HSV-1 protease, the half-inhibitory concentration (IC50) worked out at 2.1 µM. This molecule returned a 90% effect concentration (EC90) in the data set on HSV-1 (setting [1]) of 10.2 µM. Also, the “Cell viability (% of control)” value in the data set on Vero cells is on record as 16.1%.

On to `Cc1c(NC(=O)OC(C)(C)C)ccc2nc(N[C@@H](C)C(=O)N(C)CCc3ccccn3)oc(=O)c12` [Compound No.43, (5-Methyl-2-{1S-[methyl-(2-pyridin-2-yl-ethyl)-carbamoyl]-ethylamino}-4-oxo-4H-benzo[d][1,3]oxazin-6-yl)-carbamic acid tert-butyl ester], for which the IC50 on HSV-1 protease was 0.7 µM. Further, the EC90 with HSV-1 (setting [1]) came out at 9.1 µM. The “Cell viability (% of control)” value with Vero cells was 104.0%.
